Measurements reported in patent US20230303712A1, “METHODS OF TREATING GLIOBLASTOMA” (Ramot at Tel-Aviv University Ltd., priority 2020, published 2023).
Entries after “also recorded” stand apart in the source; their conditions may differ.

What was measured:
L-Selectin = molecular target: T1, L-Selectin (Homo sapiens, UniProt P14151); details: cited from earlier work
T1 sequence (P14151 39-372): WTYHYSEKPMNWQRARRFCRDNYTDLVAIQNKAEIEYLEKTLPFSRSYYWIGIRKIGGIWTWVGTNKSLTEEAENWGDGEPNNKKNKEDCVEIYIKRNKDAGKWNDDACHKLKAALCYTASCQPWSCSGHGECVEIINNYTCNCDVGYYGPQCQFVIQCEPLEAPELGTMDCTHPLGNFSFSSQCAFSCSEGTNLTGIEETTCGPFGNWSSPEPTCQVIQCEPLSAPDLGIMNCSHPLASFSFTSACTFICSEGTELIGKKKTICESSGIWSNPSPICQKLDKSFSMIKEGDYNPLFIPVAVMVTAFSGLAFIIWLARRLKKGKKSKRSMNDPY

[1] = Blood chemistry and blood count after systemic SELPi; assay type: in vivo, c57/BL mice; details: single IV dose 16 mg/kg, healthy mice, 24 h
Procedure: To test the effect of SELPi treatment in vivo on mice blood chemistry and blood count, c57/BL mice were injected with 16 mg/kg SELPi IV. Twenty-four hours following injecting, mice were euthanized and blood was collected. Blood samples were analyzed by AML Ltd (Herzliya, Israel). For all models, 50 × 10^3 GB cells were stereotactically injected in 5 µl at 1 µl/min flow rate. Injection coordination relative to the mouse Bregma point were: 2 mm lateral (left), 0.5 mm anterior, 3.5 mm ventral.

[2] = test system: human GB cells (PD-GB4, U251, PD-GB 1, PD-GB3); assay: 3D spheroid invasion in Matrigel, human GB cells co-cultured with human microglia; assay type: cell-based
Procedure: Tumor spheroids. Tumor spheroids were prepared from mCherry/iRFP/GFP-labeled patient-derived, human U251 or murine GB cells (GL261, iAGR53, PNp53, EGFRviii-shP16), either alone or co-cultured with unlabeled primary human/murine microglia (4:1 ratio), using our modified hanging-drop method, as we previously described. For assessment of cell invasion, GB spheroids (4,000 cells/sphere) were embedded in Matrigel (Corning), seeded in a 96-well plate, and incubated with complete DMEM or complete DMEM supplemented with SELPi (0.5 µM). […] For FACS analysis, GB spheroids (8,000 cells/sphere) were embedded in Matrigel, seeded in a 12-well plate, and treated with complete DMEM, 0% serum microglia medium or microglia CM for 24-48 h. Cells were then recovered using Cell Recovery Solution (Corning) and further analyzed by FACS.

iAGR53 tumors = assay: SELPi treatment in murine mesenchymal iAGR53 GB model; assay type: in vivo, C57BL/6 mice; details: iAGR53, 16 mg/kg SELPi IV QOD
Procedure: Tumor volume was evaluated by MRI. […] Twelve days post cell inoculation, 3 mice per group were euthanized and brain were resected and further processed for histology analysis. […] Brain cannulas (NBT) were implanted intraventricularly in the co-lateral hemisphere and the mice were treated stereotactically via the cannulas (1 µl at 0.2 µl/min flow rate) with PBS, 2 mg/kg SELPi dissolved in DMSO or vehicle (DMSO). Three weeks post cell-inoculation, the mice were euthanized, the cannulas were removed, and tumor volume was evaluated by MRI (MR solutions). Brains were resected for immunostaining.
SELPi treatments. KF 38789 (SELPi) is a commercially-available P-Selectin inhibitor manufactured by Tocris BioScience. […] This compound is commonly used for research of immune-related processes such as tumor metastases formation. For the experiment described above, SELPi (0.8 mg/ml) was dissolved in DMSO (0.01%), polyethyleneglycol (93.2 mg/ml), Tween-80 (14.8 mg/ml) and DDW. Mice were injected with 16 mg/kg IV, twice a week, three times a week or QOD as described above. As control (vehicle), mice were injected with DMSO (0.01%), polyethyleneglycol (93.2 mg/ml), Tween-80 (14.8 mg/ml), in DDW at equivalent volume.
MRI imaging. Tumor bearing mice were imaged at the Sackler Cellular & Molecular Imaging Center (SCMIC), Tel Aviv University. […]

COc1ccc(C2CC(c3c(O)cc(C)oc3=O)=NCCS2)c(OC)c1 (stereo not shown) [SELPi, 3-[7-(2,4-Dimethoxyphenyl)-2,3,6,7-tetrahydro-1,4-thiazepin-5-yl]-4-hydroxy-6-methyl-2H-pyran-2-one]
inhibiting effect on L-Selectin (L-Selectin): no inhibiting effects | complete blood count: blood lymphocytes [1]: increase in the absolute amount of blood lymphocytes | blood chemistry ([1]; vs saline, vehicle): no significant changes | 3D spheroid invasion ([2]; PD-GB4 GB cells with human microglia, 0.5 µM SELPi or SELP knockdown, 72 h): reduced invasion | 3D spheroid invasion, further human GB models ([2]; human U251, PD-GB 1, PD-GB3): effect of SELPi on GB spheroids was observed | survival (iAGR53 tumors): prolonged the survival | tumor volume (MRI) (iAGR53 tumors): significant reduction in tumor volume; also recorded: reduced tumor growth
